Where two headings read alike, the source gives them in different places.
How the values were obtained:
[1] = test system: CB1; parameters: method as in Felder et al., 1995; conditions: ref Felder et al., 1995; read-out: IC50, inhibition of adenylate cyclase at CB1; cited from earlier work
[2] = test system: rats; parameters: method as in Higuera-Matas et al., 2010; conditions: ref Higuera-Matas et al., 2010, cited from earlier work
[3] = test system: CD1 female mouse brain lipidome; test: Brain-region lipid levels (HPLC/MS/MS lipidomics) 2 h after single i.p. 3 mg/kg CP 55,940 vs vehicle; type: in vivo; parameters: unit: moles per gram
Experimental: (§1) The Bloomington Institutional Animal Care and Use Committee of Indiana University reviewed and approved the animal procedures. Female mice from the CD1 strain were utilized to match our study examining THC’s effects on the brain lipidome ([Leishman et al., 2018]). Mice were given a single i.p. injection of either 3 mg/kg CP or 1:1:18 cremophor:ethanol:saline vehicle (please refer to the section “3 mg/kg CP Is Relevant for Synthetic Cannabinoid Abuse and Has Stronger Effects on the Female Mouse Brain Lipidome During Adolescence” for a justification of dose and use of female mice). Three different age groups were given injections: PND 35 and PND 50 adolescents, and adult mice (PND 113). At least eight mice in each age group received CP and at least eight received vehicle. Matching the THC study time course ([Leishman et al., 2018]), mice were sacrificed via rapid decapitation 2 h after injection. Brains were immediately removed and flash-frozen in liquid nitrogen, and then stored at -80°C until dissections were performed. Brains were dissected on an ice-cold dissection plate into the following regions: STR, HIPP, CER, THAL, CTX, HYP, MID, and STEM. These abbreviations for these brain areas will be used exclusively when discussing the results generated by these specific dissections. Each dissected area was immediately placed in liquid nitrogen and then stored at -80°C until used for lipid extraction.
Tissue extracts were performed as previously described ([Bradshaw et al., 2006]; [Stuart et al., 2013]; [Raboune et al., 2014]; [Leishman et al., 2016a],[b], [2017], [2018]). First, samples were shock frozen in liquid nitrogen, weighed, and transferred to a centrifuge tube. The mass of the largest sample was multiplied by 50 to determine how many milliliters of HPLC-grade methanol (Fisher, Fair Lawn, NJ, United States) to add. Then, samples were spiked with 500 pmol deuterium-labeled NAGly (d8NAGly; Cayman Chemical, Ann Arbor, MI, United States). Samples were placed on ice in darkness for 2 h then individually homogenized and centrifuged at 19,000 × g for 20 min at 20°C. […]
As previously described ([Bradshaw et al., 2006]; [Tan et al., 2006]; [Smoum et al., 2010]; [Stuart et al., 2013]; [Tortoriello et al., 2013]; [Raboune et al., 2014]; [Leishman et al., 2016a],[b], [2017], [2018]), samples were analyzed using an Applied Biosystems API 3000 triple quadrupole mass spectrometer with electrospray ionization (Foster City, CA, United States). […]
(§2) This screening library will be referred to as the lipidome when discussing data from this study. HPLC/MS/MS data were analyzed using Analyst software (Applied Biosystems) ([Bradshaw et al., 2006]; [Tan et al., 2006]; [Stuart et al., 2013]; [Tortoriello et al., 2013]; [Raboune et al., 2014]; [Leishman et al., 2016a],[b], [2017], [2018]). […]

[4] = test system: CD1 female mouse brain lipidome; test: as above; type: in vivo
Experimental: as §1
Tissue extracts were performed as previously described ([Bradshaw et al., 2006]; [Stuart et al., 2013]; [Raboune et al., 2014]; [Leishman et al., 2016a],[b], [2017], [2018]). First, samples were shock frozen in liquid nitrogen, weighed, and transferred to a centrifuge tube. The mass of the largest sample was multiplied by 50 to determine how many milliliters of HPLC-grade methanol (Fisher, Fair Lawn, NJ, United States) to add. Then, samples were spiked with 500 pmol deuterium-labeled NAGly (d8NAGly; Cayman Chemical, Ann Arbor, MI, United States). Samples were placed on ice in darkness for 2 h then individually homogenized and centrifuged at 19,000 × g for 20 min at 20°C. Supernatants were diluted with HPLC water (purified in house) to make a solution of 75% water, 25% supernatant. Lipids were partially purified on C18 solid phase extraction columns (Agilent, Palo Alto, CA, United States). A series of four elutions with 1.5 mL of 60%, 75%, 85%, and 100% methanol were collected ([Stuart et al., 2013]; [Leishman et al., 2016a],[b], [2018]).
As previously described ([Bradshaw et al., 2006]; [Tan et al., 2006]; [Smoum et al., 2010]; [Stuart et al., 2013]; [Tortoriello et al., 2013]; [Raboune et al., 2014]; [Leishman et al., 2016a],[b], [2017], [2018]), samples were analyzed using an Applied Biosystems API 3000 triple quadrupole mass spectrometer with electrospray ionization (Foster City, CA, United States). Using an Agilent XDB-C18 reversed phase analytical column and optimized mobile phase gradients, 20 μL from each elution were chromatographed. Two Shimadzu 10ADvp pumps (Columbia, MD, United States) provided the pressure for gradient elution. Mobile phase A: 20% methanol, 80% water (v/v) and 1 mM ammonium acetate (Sigma, St. Louis, MO, United States). Mobile phase B: 100% methanol, 1 mM ammonium acetate. Every method run began with 0% mobile phase B, reached 100% mobile phase B flowing at 0.2 mL/min, and gradually returned to 0% mobile phase B.
as §2, with “[2018]). Chromatograms (Supplementary Figure 3) were generated by determining the retention time of analytes from the analytical column with a [M-1] or [M+1] parent peak and a fragmentation peak corresponding to the programmed values.” for “[2018]).”

[5] = test system: mice; conditions: cited from earlier work; for catalepsy: single 0.3 mg/kg injection, ref Kow et al., 2014
[6] = test system: rats; parameters: method as in McGregor et al., 1996; conditions: acute injection of 0.1 mg/kg, ref McGregor et al., 1996; cited from earlier work
[7] = parameters: method as in earlier work; conditions: ref Ferrari et al., 2000; Lopez et al., 2009; Gorzalka et al., 2010; cited from earlier work
[8] = test system: CB2; parameters: method as in Felder et al., 1995; conditions: ref Felder et al., 1995; read-out: IC50, inhibition of adenylate cyclase at CB2; cited from earlier work
[9] = test system: CB1; conditions: cited from earlier work

CCCCCCC(C)(C)c1ccc([C@@H]2C[C@H](O)CC[C@H]2CCCO)c(O)c1 [CP 55,940]
DAT in the caudate-putamen ([2]; rats, CP during adolescence): upregulated
dopamine D2 receptor levels in the HIPP ([2]; rats, CP during adolescence): decreased
PGF2α level, Mean ([3]; cerebellum, PND 50 female mice, 3 mg/kg CP 55,940): 6.11E-11
PGF2α level, Mean ([3]; hypothalamus, PND 35 adolescent female mice, 3 mg/kg): 3.47E-10
PGF2α level, Mean ([3]; midbrain, PND 35 WT adolescent female mice, 3 mg/kg): 5.59E-10
PGF2α level, Mean ([3]; thalamus, PND 50 female mice, 3 mg/kg CP 55,940): 1.3E-10
PGF2α level, Mean ([4]; adult cortex, 3mg/kg CP 55,940): 2.77E-10
PGF2α level, Mean ([4]; adult female mice, brainstem, 3mg/kg CP 55,940): 1.69E-10
PGF2α level, Mean ([4]; adult hypothalamus, 3 mg/kg CP 55,940): 2.18E-10
PGF2α level, Mean ([4]; adult midbrain, 3mg/kg CP 55,940): 2.91E-10
PGF2α level, Mean ([4]; brainstem, PND 50, 3 mg/kg CP 55,940): 1.26E-10
PGF2α level, Mean ([4]; cerebellum, WT adult female mice, 3mg/kg CP 55,940): 2.22E-10
PGF2α level, Mean ([4]; cerebellum, PND35 WT female mice, 3mg/kg CP 55,940): 3.05E-10
PGF2α level, Mean ([4]; cortex, PND 50 female mice, 3mg/kg CP 55,940): 1.71E-10
PGF2α level, Mean ([4]; cortex, PND 35 adolescent female mice, 3 mg/kg CP 55,940): 3.11E-10
PGF2α level, Mean ([4]; hippocampus, adult, 3 mg/kg CP 55,940): 3.25E-10
PGF2α level, Mean ([4]; hippocampus, PND 35 WT female mice, 3mg/kg CP 55,940): 9.18E-10
PGF2α level, Mean ([4]; hypothalamus, PND 50 female mice, 3mg/kg CP 55,940): 1.35E-10
PGF2α level, Mean ([4]; midbrain, PND 50 female mice, 3mg/kg CP 55,940): 1.57E-10
PGF2α level, Mean ([4]; striatum, adult, 3 mg/kg CP 55,940): 2.43E-10
PGF2α level, Mean ([4]; thalamus, WT adult female mice, 3mg/kg CP 55,940): 2.22E-10
PGF2α level, Mean ([4]; thalamus, PND 35 adolescent female mice, 3 mg/kg CP 55,940): 5.11E-10
catalepsy ([5]; C57 mice): produced catalepsy
catalepsy ([5]; CB1 KO mice): not
ED50 for catalepsy ([5]; ref Little et al., 1988, Compton et al., 1992): 0.4 mg/kg
doses attenuating social motivation [7]: over 0.4 mg/kg
potency relative to THC ([9]; cannabinoid receptors, ref Showalter et al., 1996, Besnard et al., 2012): ~10 fold
EC50 ([9]; ref Brents et al., 2011, read-out: EC50, stimulated G-protein binding at CB1): 3.4 nM

Source: publication PMC6277767, “Broad and Region-Specific Impacts of the Synthetic Cannabinoid CP 55,940 in Adolescent and Adult Female Mouse Brains” (Frontiers in Molecular Neuroscience, 2018)
